The values below come from patent US20210038732A1, “ANTICANCER MICRORNA AND LIPID FORMULATIONS THEREOF” (INTERNA TECHNOLOGIES B.V., priority 2018, published 2021).

The test system of series [1] is subq human A2058 melanoma tumors. In words: Tumor growth inhibition in mice bearing subq A2058 tumors (Example 4.2). Type of series: in vivo. As to the method: To determine TGI effects, the T/C (tumor/control) ratio was determined by calculating the relative percentage increase in TV (tumor volume) for the individual mice of each group (TV of the day of randomization as reference point), and then dividing the group median relative increase in TV for the treated groups by that for the PBS group. Outliers (with respect to individual TVs) within each treatment group were determined by using the formulas Q1−1.5×IQR (lower limit) and Q3+1.5×IQR (upper limit).
Statistical analysis was performed using Graphpad Prism 7. A two-tailed, non-parametric Mann-Whitney test was used to calculate differences in relative tumor volumes (TV on day ‘X’ divided by TV on the day of randomization). In all statistical tests, the effect of the test items was compared to the PBS group. A p-value <0.05 was considered statistically significant.
Four to six weeks old female athymic nude mice (Crl:NU(NCr)-Foxn1nu; Charles River) were unilaterally and subcutaneously injected in the flank with 1×10^7 A2058 cells in 50% matrigel (0.2 mL/mouse). At the time of randomization, the TVs (tumor volumes) ranged between 139.4 and 245.5 mm3 (median 161.3, IQR=149.9-175.1). Body weights and TVs (caliper measurements) were determined three times/week. […]

Series [2] has the same test system. In words: Tumor growth inhibition, different doses and regimens, subq A2058 (Example 4.5). In kind it is in vivo, mice. Conditions: day 21. As for the experimental part: Six to eight weeks old female BALB/c nude mice (Shanghai Lingchang Bio-Technology Co. Ltd, Shanghai, China) were unilaterally and subcutaneously injected in the right flank with 5×10^6 A2058 tumor cells in PBS (0.1 mL/mouse). At the time of randomization, the TVs ranged between 50.3 and 156.3 mm3 (median 104.8, IQR=91.9-127.1). After randomization, the mice received different miRNA-193a dosing concentrations under different dosing regimen (see Table 10 for dosing scheme). The BRAF-inhibitor vemurafenib was also included. Body weights and TVs (caliper measurements) were determined three times/week. *QDx3,QDx4=one injection per day for 3 or 4 consecutive days; BIW=twice a week, BID=twice daily. Po=per oral.

The next series concerns 4T1 mouse tumor cells. In words: 4T1 re-challenge of previously treated mice, with or without T-cell depletion (Example 4.11). In kind it is in vivo. The text has this: In all cases, monoclonal antibodies were delivered to mice by intraperitoneal injection in 200p1 phosphate-buffered saline. For depletion and neutralization experiments, CD4 (clone GK1.5) and CD8 (clone 2.43) antibodies were used simultaneously. Depletion or neutralization was commenced a week before tumor cell inoculation. For CD4+ and CD8+ T-cell depletion, […] of the indicated antibody was delivered on a QOD×3 schedule in the first week and then a Q3D schedule for 3 more weeks. Depletion of the desired T-cell population(s) was confirmed on whole blood by flow cytometry (data not shown). 100 μL whole blood was drawn per animal on day 0 and day 14 post tumor cell inoculation (day 0=24h post QOD×3, Day 14: 24h post QOD×3+Q3D for 2 weeks). Then mixed with the antibodies. After vortexing gently, the mix was incubated for 30 minutes in the dark at room temperature (RT). 2 ml of 1× FACS lysing buffer was added to the solution and incubated for 10 min at RT. Then the solution mix was centrifuged for 5 min and the supernatant was removed. Finally, the cells were resuspended in 150p1 of staining buffer and analyzed on a cytometer. All flow cytometry antibodies (anti-CD45-PerCP-cy55 (clone: 30-F11), anti-CD3-FITC (clone: 17A2) anti-CD4-APC (clone: RM4-4), anti-CD8-PE (clone: 53-6.7) were purchased from Biolegend except anti-CD3 from BD Biosciences. (QOD×3: every other day for 3 days, Q3D: every 3 days (Monday-Thursday)).
To investigate the T-cell mediated long-term immunity in miRNA-193a treated mice against 4T1 cancer cells, a new study with similar conditions to example 4.4 was performed. 5 days post-tumor inoculation, mice were randomized into 2 groups and received a similar treatment and dosing regimen as in example 4.4 (see Table 9, groups 1-2 only). After surgical removal of primary tumors when the group mean tumor volume reached 800 mm3, treatments were resumed and continued until day 58. […]

In the next series the test system is NT5E and ENTPD1. In words: NT5E and ENTPD1 expression at mRNA and protein level (RT-PCR, western blot). In kind it is cell-based. The conditions noted are these: 10 nM, variety of cell lines. As to the method:
To prepare cDNA, first 100 ng total RNA was mixed with Random Hexamers (Qiagen; final concentration 2 μM) in a final volume of 12.5 μl in NFW, denatured for 5 min at 70° C. and immediately cooled on ice. Next, 7.5 μl of a cDNA synthesis mix was added, consisting of 4 μl 5×RT Buffer (Promega), 0.4 μl 25 mM dNTPs (Promega), 1 μl 200 U/μL MMLV RT-enzyme (Promega), 0.5 μL 40 U/μL RNAse Inhibitor (Promega) and 1.6 μL NFW. The following cDNA synthesis protocol was used:
Approximately 1×10^6 cells were harvested and lysed in immunoprecipitation RIPA lysis buffer and the lysates were blotted onto a PVDF membrane. Membranes were probed overnight with primary antibodies and bound antibodies were visualized using HRP-linked secondary antibodies (Cell-Signalling). The antibodies used for western blot included anti-NT5E (D7F9A) from Cell Signalling Technology, and anti-αTubulin from Santa Cruz. αTubulin was used as a loading control for the western blot experiment.
To assess the impact of miRNA-193a-3p on adenosine generation, the release of free phosphate in A2058 melanoma cells was measured as a read out for ATP, ADP, and AMP dephosphorylation in supernatants. […] Similar results were found by measuring the direct amount of adenosine in cell culture supernatants (FIG. 16B). Further, the role of miRNA-193a in A2058 cancer cell migration was investigated.

For “miRNA-193a: duplex of the miRNA-193a-3p of SEQ ID NO: 218 (mimic, sense) with antisense strand SEQ ID NO: 219; naked in vitro, formulated in vivo (sense UGGGACUUUGUAGGCCAGUUTT; antisense AACUGGCCUACAAAGUCCCAGU; chemistry not given here; listed as Homo sapiens)”, in series [1] (3 mg/kg iv QDx5 then BIW, Table 1 entry 1 nanoparticles, 12 days after start of treatment), the “T/C (relative tumor volume)” value worked out at 0.44. The TGI effects result in series [1] (formulated in nanoparticles according to the invention, 3 mg/kg iv) is listed as “significant TGI effects”. Moreover, the “Tumor growth (relative tumor volume)” value in series [2] (QDx3 6.7 mg/kg iv x3 weeks, nanoparticles according to the invention) is on record as “significant reduction of tumor growth”; in series [2] (the other dosing regimen (10 mg/kg BIW; 5 mg/kg QDx4)), “mild trend”. Also, the “4T1 tumor growth after second re-challenge” value in the series with 4T1 mouse tumor cells (previously treated mice depleted for T cells (anti-CD4 + anti-CD8)) was “resulted in 4T1 tumor growth”; in the series with 4T1 mouse tumor cells (previously treated mice not depleted for T cells), “did not show a palpable 4T1 tumor”. Moreover, the “Tumor re-growth after 4T1 re-challenge” value with 4T1 mouse tumor cells (re-challenge day 76, followed up to 3 weeks, vs naïve mice) is “did not develop any palpable tumor”. The “Expression of both enzymes involved in adenosine generation pathway (NT5E, ENTPD1)” value with NT5E and ENTPD1 is “downregulated the expression of both enzymes”.
